Assay results as given in patent US11426397B2, “Piperidinyl- and piperazinyl-substituted heteroaromatic carboxamides as modulators of GPR6” (TAKEDA PHARMACEUTICAL COMPANY LIMITED, priority 2017, dated 2022).

Each molecule was assayed against T1, GPR6 receptor expressed in CHO-K1 cells (Homo sapiens, UniProt P46095) (assay: In vitro inhibition of cAMP (EC50), cell-based HTRF cAMP assay). Conditions: inhibition of constitutive cAMP activity of GPR6 in CHO-K1 cells.
T1 construct: expressed in transfected cells
Method in brief: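 Tetracycline-inducible CHO-K1 line, GPR6 expression induced 20 h with 2 μg/mL doxycycline. Compounds incubated 45 min at 37 °C in Ringer's buffer (pH 7.4) with 0.5% fatty acid free BSA and 300 μM IBMX. Constitutive cAMP read by Lance HTRF; EC50 from four-parameter logistic fit.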

T1 sequence (P46095 whole entry): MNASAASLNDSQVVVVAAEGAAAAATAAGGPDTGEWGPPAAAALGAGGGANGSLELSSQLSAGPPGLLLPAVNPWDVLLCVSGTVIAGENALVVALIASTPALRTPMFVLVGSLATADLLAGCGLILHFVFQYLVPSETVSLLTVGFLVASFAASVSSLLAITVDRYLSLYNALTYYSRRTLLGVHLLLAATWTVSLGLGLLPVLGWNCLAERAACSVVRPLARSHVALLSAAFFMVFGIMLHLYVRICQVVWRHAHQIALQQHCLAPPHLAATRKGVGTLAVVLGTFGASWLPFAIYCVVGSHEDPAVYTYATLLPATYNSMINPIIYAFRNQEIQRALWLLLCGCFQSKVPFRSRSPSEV

| Compound | pEC50, in vitro inhibition of cAMP |
| --- | --- |
| COc1cc(Br)ccc1C(=O)Nc1cc(C#N)ccc1N1CCC(Oc2ccc(F)cc2F)CC1 [Example 226, 4-bromo-N-(5-cyano-2-(4-(2,4-difluorophenoxy)piperidin-1-yl)phenyl)-2-methoxybenzamide] | 7.0 |
| COc1cccc(C)c1C(=O)Nc1cc(C#N)ccc1N1CCC(Oc2ccc(F)cc2F)CC1 [Example 227, N-(5-cyano-2-(4-(2,4-difluorophenoxy)piperidin-1-yl)phenyl)-2-methoxy-6-methylbenzamide] | 5.8 |
| COc1cc(Cl)ccc1C(=O)Nc1cc(C#N)ccc1N1CCC(Oc2ccc(F)cc2F)CC1 [Example 228, 4-chloro-N-(5-cyano-2-(4-(2,4-difluorophenoxy)piperidin-1-yl)phenyl)-2-methoxybenzamide] | 7.2 |
| COc1cc(F)c(F)cc1C(=O)Nc1cc(C#N)ccc1N1CCC(Oc2ccc(F)cc2F)CC1 [Example 229] | 7.3 |
| COc1cccc(C(=O)Nc2cc(C#N)ccc2N2CCC(Oc3ccc(F)cc3F)CC2)c1OC [Example 230] | 7.1 |
| COc1ccc(OC(F)(F)F)cc1C(=O)Nc1cc(C#N)ccc1N1CCC(Oc2ccc(F)cc2F)CC1 [Example 231, N-(5-cyano-2-(4-(2,4-difluorophenoxy)piperidin-1-yl)phenyl)-2-methoxy-5-(trifluoromethoxy)benzamide] | 6.3 |
| COc1c(C)cccc1C(=O)Nc1cc(C#N)ccc1N1CCC(Oc2ccc(F)cc2F)CC1 [Example 232, N-(5-cyano-2-(4-(2,4-difluorophenoxy)piperidin-1-yl)phenyl)-2-methoxy-3-methylbenzamide] | 6.4 |
| COc1c(C(=O)Nc2cc(C#N)ccc2N2CCC(Oc3ccc(F)cc3F)CC2)ccc(F)c1F [Example 233, N-(5-cyano-2-(4-(2,4-difluorophenoxy)piperidin-1-yl)phenyl)-3,4-difluoro-2-methoxybenzamide] | 6.4 |
| COc1c(Cl)cc(Cl)cc1C(=O)Nc1cc(C#N)ccc1N1CCC(Oc2ccc(F)cc2F)CC1 [Example 234, 3,5-dichloro-N-(5-cyano-2-(4-(2,4-difluorophenoxy)piperidin-1-yl)phenyl)-2-methoxybenzamide] | <4.5 |
| COc1ccc(C(=O)Nc2cc(C#N)ccc2N2CCC(Oc3ccc(F)cc3F)CC2)c(OC)c1 [Example 235, N-(5-cyano-2-(4-(2,4-difluorophenoxy)piperidin-1-yl)phenyl)-2,4-dimethoxybenzamide] | 7.1 |
| COc1cc(C)ccc1C(=O)Nc1cc(C#N)ccc1N1CCC(Oc2ccc(F)cc2F)CC1 [Example 236, N-(5-cyano-2-(4-(2,4-difluorophenoxy)piperidin-1-yl)phenyl)-2-methoxy-4-methylbenzamide] | 7.1 |
| COc1ccc(C)cc1C(=O)Nc1cc(C#N)ccc1N1CCC(Oc2ccc(F)cc2F)CC1 [Example 237, N-(5-cyano-2-(4-(2,4-difluorophenoxy)piperidin-1-yl)phenyl)-2-methoxy-5-methylbenzamide] | 6.7 |
| COc1cccc(OC)c1C(=O)Nc1cc(C#N)ccc1N1CCC(Oc2ccc(F)cc2F)CC1 [Example 238, N-(5-cyano-2-(4-(2,4-difluorophenoxy)piperidin-1-yl)phenyl)-2,6-dimethoxybenzamide] | 5.0 |
| COc1ncccc1C(=O)Nc1cc(C#N)ccc1N1CCN(Cc2ccccc2F)CC1 [Example 239, N-(5-cyano-2-(4-(2-fluorobenzyl)piperazin-1-yl)phenyl)-2-methoxynicotinamide] | 6.9 |
| COc1ncccc1C(=O)Nc1cc(C#N)ccc1N1CCN(Cc2cccc(F)c2)CC1 [Example 240, N-(5-cyano-2-(4-(3-fluorobenzyl)piperazin-1-yl)phenyl)-2-methoxynicotinamide] | 6.8 |
| COc1ncccc1C(=O)Nc1cc(C#N)ccc1N1CCN(Cc2cscn2)CC1 [Example 241, N-(5-cyano-2-(4-(thiazol-4-ylmethyl)piperazin-1-yl)phenyl)-2-methoxynicotinamide] | 6.0 |
| COc1ccc(F)c(CN2CCN(c3ccc(C#N)cc3NC(=O)c3cccnc3OC)CC2)c1 [Example 242, N-(5-cyano-2-(4-(2-fluoro-5-methoxybenzyl)piperazin-1-yl)phenyl)-2-methoxynicotinamide] | 6.8 |
| COc1ncccc1C(=O)Nc1cc(C#N)ccc1N1CCN(Cc2cccc(F)c2F)CC1 [Example 243, N-(5-cyano-2-(4-(2,3-difluorobenzyl)piperazin-1-yl)phenyl)-2-methoxynicotinamide] | 6.5 |

| Compound | pEC50, in vitro inhibition of cAMP |
| --- | --- |
| COc1ncccc1C(=O)Nc1cc(C#N)ccc1N1CCN(Cc2ccc(F)cn2)CC1 [Example 244] | 6.3 |
| COc1ncccc1C(=O)Nc1cc(C#N)ccc1N1CCN(Cc2ccccc2C#N)CC1 [Example 245, N-(5-cyano-2-(4-(2-cyanobenzyl)piperazin-1-yl)phenyl)-2-methoxynicotinamide] | 7.0 |
| COc1ncccc1C(=O)Nc1cc(C#N)ccc1N1CCN(Cc2ccc(F)c(F)c2)CC1 [Example 246, N-(5-cyano-2-(4-(3,4-difluorobenzyl)piperazin-1-yl)phenyl)-2-methoxynicotinamide] | 7.1 |
| COc1ccccc1CN1CCN(c2ccc(C#N)cc2NC(=O)c2cccnc2OC)CC1 [Example 247, N-(5-cyano-2-(4-(2-methoxybenzyl)piperazin-1-yl)phenyl)-2-methoxynicotinamide] | 5.9 |
| COc1ncccc1C(=O)Nc1cc(C#N)ccc1N1CCN(Cc2cccc(C#N)c2)CC1 [Example 248, N-(5-cyano-2-(4-(3-cyanobenzyl)piperazin-1-yl)phenyl)-2-methoxynicotinamide] | 6.9 |
| COc1ncccc1C(=O)Nc1cc(C#N)ccc1N1CCN(Cc2c(F)cccc2F)CC1 [Example 249] | 6.4 |
| COc1ccc(CN2CCN(c3ccc(C#N)cc3NC(=O)c3cccnc3OC)CC2)nc1 [Example 250, N-(5-cyano-2-(4-((5-methoxypyridin-2-yl)methyl)piperazin-1-yl)phenyl)-2-methoxynicotinamide] | 6.0 |
| COc1ncccc1C(=O)Nc1cnc(C(=O)N[C@@H]2CCOC2)cc1N1CCC(Oc2ccc(F)cc2F)CC1 [Example 251, (R)-4-(4-(2,4-difluorophenoxy)piperidin-1-yl)-5-(2-methoxynicotinamido)-N-(tetrahydrofuran-3-yl)picolinamide] | 6.8 |
| CCNC(=O)c1cc(N2CCC(Oc3ccc(F)cc3F)CC2)c(NC(=O)c2cccnc2OC)cn1 [Example 252, 4-(4-(2,4-difluorophenoxy)piperidin-1-yl)-N-ethyl-5-(2-methoxynicotinamido)picolinamide] | 7.0 |
| COc1ncccc1C(=O)Nc1cnc(C(=O)NC(C)C)cc1N1CCC(Oc2ccc(F)cc2F)CC1 [Example 253, 4-(4-(2,4-difluorophenoxy)piperidin-1-yl)-N-isopropyl-5-(2-methoxynicotinamido)picolinamide] | 6.8 |
| CCCNC(=O)c1cc(N2CCC(Oc3ccc(F)cc3F)CC2)c(NC(=O)c2cccnc2OC)cn1 [Example 254, 4-(4-(2,4-difluorophenoxy)piperidin-1-yl)-5-(2-methoxynicotinamido)-N-propylpicolinamide] | 7.2 |
| COc1ncc(F)cc1C(=O)Nc1ccc(C#N)nc1N1CCC(Oc2ccc(F)cc2F)CC1 [Example 255, N-(6-cyano-2-(4-(2,4-difluorophenoxy)piperidin-1-yl)pyridin-3-yl)-5-fluoro-2-methoxynicotinamide] | 7.3 |
| COc1c(C(=O)Nc2ccc(C#N)nc2N2CCC(Oc3ccc(F)cc3F)CC2)cnn1C [Example 256, N-(6-cyano-2-(4-(2,4-difluorophenoxy)piperidin-1-yl)pyridin-3-yl)-5-methoxy-1-methyl-H-pyrazole-4-carboxamide] | 6.7 |
| Cn1cccc(C(=O)Nc2ccccc2N2CCC(Oc3ccc(F)cc3F)CC2)c1=O [Example 257, N-(2-(4-(2,4-difluorophenoxy)piperidin-1-yl)phenyl)-1-methyl-2-oxo-1,2-dihydropyridine-3-carboxamide] | 7.0 |
| O=C(Nc1ccccc1N1CCN(C(=O)c2ccc(Cl)cc2)CC1)c1ncccn1 [Example 258, N-(2-(4-(4-chlorobenzoyl)piperazin-1-yl)phenyl)pyrimidine-2-carboxamide] | 4.9 |
| O=C(Nc1ccccc1N1CCN(C(=O)c2ccc(Cl)cc2)CC1)c1ccncn1 [Example 259, N-(2-(4-(4-chlorobenzoyl)piperazin-1-yl)phenyl)pyrimidine-4-carboxamide] | 5.3 |
| CN(C(=O)c1ccccc1O)c1ccccc1N1CCN(C(=O)c2ccc(Cl)cc2)CC1 [Example 260] | 4.9 |
| COc1ncccc1C(=O)Nc1cc(C#N)ncc1N1CCC(Oc2ccc(F)cc2F)CC1 [Example 261, N-(2-cyano-5-(4-(2,4-difluorophenoxy)piperidin-1-yl)pyridin-4-yl)-2-methoxynicotinamide] | 7.2 |
